# Measurements published in ChEMBL document CHEMBL1201862, “PubChem BioAssay data set” (2004).
# Values joined by “and” are separate entries in the source; they are usually repeats but may differ in a detail not shown here. Equal values may be shown once. Active and inactive are the calls of the source.
# What was measured:
# Estrogen receptor = molecular target: T1, Estrogen receptor (Homo sapiens, UniProt P03372); assay: ERα coactivator recruitment enhancers – biochemical, TR-FRET, ERα LBD, dose response (AID 737)
# T1 sequence (P03372 whole entry): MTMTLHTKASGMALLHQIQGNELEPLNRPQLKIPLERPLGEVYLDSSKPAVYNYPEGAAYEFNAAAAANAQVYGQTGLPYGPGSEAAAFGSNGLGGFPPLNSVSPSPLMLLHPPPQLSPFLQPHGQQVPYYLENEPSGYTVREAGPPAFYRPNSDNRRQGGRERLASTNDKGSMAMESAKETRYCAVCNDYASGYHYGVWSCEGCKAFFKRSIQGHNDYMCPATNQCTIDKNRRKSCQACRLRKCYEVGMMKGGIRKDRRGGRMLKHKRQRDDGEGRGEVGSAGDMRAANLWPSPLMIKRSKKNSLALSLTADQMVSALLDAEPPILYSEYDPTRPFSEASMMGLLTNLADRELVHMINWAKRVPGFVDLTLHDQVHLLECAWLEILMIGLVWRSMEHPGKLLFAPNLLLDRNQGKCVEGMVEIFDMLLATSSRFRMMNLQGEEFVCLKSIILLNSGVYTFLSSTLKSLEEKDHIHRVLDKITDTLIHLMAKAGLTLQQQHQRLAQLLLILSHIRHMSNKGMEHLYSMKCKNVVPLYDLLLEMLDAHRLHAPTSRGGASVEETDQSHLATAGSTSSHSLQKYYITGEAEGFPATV
# [1] = NIH-3T3 fibroblast cytotoxicity, dose response, cytotoxicity control, cell-based, fluorescence, Alamar Blue, secondary assay (AID 2327); format: functional;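 note: NIH-3T3 mouse fibroblasts cultured with fluconazole at 8 µg/mL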
# [2] = molecular target: T2, Mannose-6-phosphate isomerase (Homo sapiens, UniProt P34949); assay: MPI enzyme activity inhibition – biochemical, fluorescence intensity, coupled assay, primary screen (AID 1209)
# T2 sequence (P34949 whole entry): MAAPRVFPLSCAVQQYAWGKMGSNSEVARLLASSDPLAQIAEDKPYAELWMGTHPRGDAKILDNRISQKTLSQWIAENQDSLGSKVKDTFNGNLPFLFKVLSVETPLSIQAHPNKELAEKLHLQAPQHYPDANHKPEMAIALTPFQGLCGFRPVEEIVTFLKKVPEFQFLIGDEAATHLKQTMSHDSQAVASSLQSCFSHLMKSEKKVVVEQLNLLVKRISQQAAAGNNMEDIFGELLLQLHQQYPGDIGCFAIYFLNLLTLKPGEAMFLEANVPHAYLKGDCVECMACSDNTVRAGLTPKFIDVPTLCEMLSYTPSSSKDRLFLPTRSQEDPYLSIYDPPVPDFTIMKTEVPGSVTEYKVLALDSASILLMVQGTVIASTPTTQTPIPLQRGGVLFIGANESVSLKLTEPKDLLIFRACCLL
# Protein Tat = molecular target: T3, Protein Tat (Human immunodeficiency virus type 1 group M subtype B (isolate HXB2)(HIV-1), UniProt P04608); format: functional;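 note: tat binding to TAR RNA read out by fluorescence polarization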
# T3 sequence (P04608 whole entry): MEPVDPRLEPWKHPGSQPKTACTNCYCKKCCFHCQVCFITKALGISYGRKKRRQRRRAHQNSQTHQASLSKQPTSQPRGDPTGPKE
# [3] = viability loss in THP-1 monocytes – THP-1 cells, cytotoxicity control for Vif-APOBEC3G degradation inhibitor project, dose response (AID 1117359); format: functional; conditions: THP-1
# [4] = molecular target: Potassium voltage-gated channel subfamily KQT member 2 (Rattus norvegicus, UniProt O88943, W236L); assay: potentiation of rat KCNQ2 current – cell-based, automated electrophysiology, mechanism study for KCNQ2 potentiator project, dose response (AID 2603); format: functional
# [5] = molecular target: Sphingosine 1-phosphate receptor 2 (Homo sapiens, UniProt O95136); assay: Dose Response Cell Based Assay for Agonists of the S1P2 Receptor of Purchased Analogues. [Related pubchem assays: 729, 843, 854, 736 ]; format: functional
# Bcl-2-like protein 10 [6] = molecular target: T4, Bcl-2-like protein 10 (Homo sapiens, UniProt Q9HD36); assay: Concentration-response of Bcl-B inhibitors by biochemical FP with TR3 (AID 1243); format: functional
# T4 sequence (Q9HD36 whole entry): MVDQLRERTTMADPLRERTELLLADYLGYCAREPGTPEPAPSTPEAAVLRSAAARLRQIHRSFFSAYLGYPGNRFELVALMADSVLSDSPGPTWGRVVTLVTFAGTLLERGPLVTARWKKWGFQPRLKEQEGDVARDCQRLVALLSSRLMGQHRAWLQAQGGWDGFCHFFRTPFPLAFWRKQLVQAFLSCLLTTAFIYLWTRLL
# NS3 = NS3 (Hepatitis C virus, UniProt A3EZJ3); assay: NS3h DNA-binding inhibition IC50 – biochemical, fluorescence polarization, ChemBridge library, dose response (AID 743264)
# [7] = molecular target: T5, Neuropeptide Y receptor type 2 (Homo sapiens, UniProt P49146); assay: IC50 for human NPY-Y2 blockade – cell-based, counter-screen for NPY-Y1 antagonist project, dose response (AID 1278); format: functional
# [8] = molecular target: T6, Neuropeptide Y receptor type 1 (Homo sapiens, UniProt P25929); assay: IC50 of human NPY-Y1 blockers – cell-based, dose response (AID 1277); format: functional
# [9] = molecular target: Potassium voltage-gated channel subfamily KQT member 2 (Rattus norvegicus, UniProt O88943); assay: blockers of KCNQ2 channel current – cell-based, automated electrophysiology, set II, rat KCNQ2, dose response (AID 588637); format: functional
# [10] = viability of uninfected HEp-2 cells – cell-based, HTS, cytotoxicity control for RSV inhibitor project, dose response (AID 2410); format: functional; conditions: human respiratory syncytial virus
# [11] = Luminescence Cell-Based Dose Confirmation HTS to Identify Activators of 5'UTR Stem-Loop Driven Alpha-Synuclein mRNA Translation in H4 Neuroglioblastoma Cells. [Related pubchem assays: 1829 (Project Summary), 1814 (Primary HTS)]; format: functional
# [12] = Luminescence Cell-Based Dose Response HTS to Identify Activators of Luciferase Translation or Activity in H4 […] Cells. [Related pubchem assays: 1829 (Project Summary), 1814 (Primary HTS)]; format: functional
# H4 = assay: Luminescence Cell-Based Dose Response HTS to Identify Activators of 5'UTR Stem-Loop Driven Prion Protein mRNA Translation in H4 Neuroglioblastoma Cells. [Related pubchem assays: 1829 (Project Summary), 1814 (Primary HTS)]; format: functional; conditions: Homo sapiens
# Vero = assay: cells; format: functional, cell-based; conditions: Chlorocebus sabaeus
# [13] = molecular target: T6, Neuropeptide Y receptor type 1; format: functional
# [14] = molecular target: T5, Neuropeptide Y receptor type 2; format: functional, cell-based
# [15] = molecular target: T7, Heat shock 70 kDa protein 1A (Homo sapiens, UniProt P0DMV8); assay: small-molecule inhibition of Hsp70 – biochemical, TR-FRET (AID 786)
# Bcl-2-like protein 10 [16] = molecular target: T4, Bcl-2-like protein 10; assay: Bcl-B/TR3 peptide binding disruption – biochemical, fluorescence polarization, FITC-TR3 peptide, selectivity assay for Bfl-1 inhibitor project, primary screen (AID 748);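 note: fluorescence polarization from a fluorescein-labelled TR3 peptide binding purified Bcl-B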
# [17] = molecular target: T7, Heat shock 70 kDa protein 1A; assay: small molecules displacing fluorescent ligand from Hsp70 – biochemical, fluorescence polarization, primary screen (AID 583)
# [18] = molecular target: T8, Tyrosine-protein phosphatase non-receptor type 7 (Homo sapiens, UniProt P35236); assay: redox-active compounds inhibiting HePTP phosphatase – biochemical, fluorescence, mechanism study (AID 2068); format: functional
# T8 sequence (P35236 whole entry): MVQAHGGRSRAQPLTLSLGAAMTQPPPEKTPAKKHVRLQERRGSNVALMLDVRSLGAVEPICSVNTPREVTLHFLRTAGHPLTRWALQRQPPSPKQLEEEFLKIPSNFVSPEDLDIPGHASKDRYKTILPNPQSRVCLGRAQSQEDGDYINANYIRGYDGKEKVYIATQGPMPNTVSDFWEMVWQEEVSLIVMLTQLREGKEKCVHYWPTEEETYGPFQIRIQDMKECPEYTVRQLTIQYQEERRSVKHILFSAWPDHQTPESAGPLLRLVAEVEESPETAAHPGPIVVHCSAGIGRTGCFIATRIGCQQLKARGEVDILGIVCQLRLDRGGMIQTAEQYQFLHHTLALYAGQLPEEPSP
# Leucine aminopeptidase = molecular target: T9, Leucine aminopeptidase (Plasmodium falciparum 3D7, UniProt Q8IL11); assay: P. falciparum M17LAP inhibitors, primary screen, biochemical, fluorogenic H-Leu-NHMec substrate, 1536-well (AID 1619); format: functional
# T9 sequence (Q8IL11 whole entry): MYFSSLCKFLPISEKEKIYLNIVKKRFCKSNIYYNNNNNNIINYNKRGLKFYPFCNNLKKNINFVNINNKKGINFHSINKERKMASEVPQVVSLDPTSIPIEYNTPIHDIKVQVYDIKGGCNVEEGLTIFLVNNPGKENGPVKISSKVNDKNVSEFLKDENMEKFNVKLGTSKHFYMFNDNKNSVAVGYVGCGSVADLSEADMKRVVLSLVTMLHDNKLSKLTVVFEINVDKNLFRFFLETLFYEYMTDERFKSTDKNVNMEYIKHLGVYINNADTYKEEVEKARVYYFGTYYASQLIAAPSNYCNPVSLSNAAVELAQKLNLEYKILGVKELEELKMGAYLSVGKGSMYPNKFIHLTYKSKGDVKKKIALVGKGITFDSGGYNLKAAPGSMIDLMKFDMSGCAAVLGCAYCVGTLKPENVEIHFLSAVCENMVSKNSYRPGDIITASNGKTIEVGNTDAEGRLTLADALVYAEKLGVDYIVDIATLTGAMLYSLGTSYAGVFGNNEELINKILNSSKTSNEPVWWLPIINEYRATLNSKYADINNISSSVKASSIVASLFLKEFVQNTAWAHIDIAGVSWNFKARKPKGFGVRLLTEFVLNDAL
# Aspartyl aminopeptidase = Aspartyl aminopeptidase (Plasmodium falciparum 3D7, UniProt Q8I2J3); assay: Counterscreen for inhibitors of M1 and M17 aminopeptidases: QFRET-based biochemical high throughput dose response assay for inhibitors of the Plasmodium falciparum M18 Aspartyl Aminopeptidase (PFM18AAP). [Related PubChem assays: 1619 (Screening assay (M17LAP inhibitors).), 1445 (Screening assay (M1AAP inhibitors).)]
# Procathepsin L = Procathepsin L (Homo sapiens, UniProt P07711); assay: CTSL1 protease inhibition – biochemical, QFRET, 1536-well, counter-screen for M1/M17 aminopeptidase inhibitor project, dose response (AID 2214)
# [19] = molecular target: T10, Short transient receptor potential channel 4 (Mus musculus, UniProt Q9QUQ5); assay: block of DAMGO-driven TRPC4 calcium entry – cell-based, HEK293 TRPC4/mu-opioid, Fluo-4 calcium, dose response (AID 434942); format: functional;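 note: potency of inhibitors blocking the TRPC4 calcium response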
# T10 sequence (Q9QUQ5 whole entry): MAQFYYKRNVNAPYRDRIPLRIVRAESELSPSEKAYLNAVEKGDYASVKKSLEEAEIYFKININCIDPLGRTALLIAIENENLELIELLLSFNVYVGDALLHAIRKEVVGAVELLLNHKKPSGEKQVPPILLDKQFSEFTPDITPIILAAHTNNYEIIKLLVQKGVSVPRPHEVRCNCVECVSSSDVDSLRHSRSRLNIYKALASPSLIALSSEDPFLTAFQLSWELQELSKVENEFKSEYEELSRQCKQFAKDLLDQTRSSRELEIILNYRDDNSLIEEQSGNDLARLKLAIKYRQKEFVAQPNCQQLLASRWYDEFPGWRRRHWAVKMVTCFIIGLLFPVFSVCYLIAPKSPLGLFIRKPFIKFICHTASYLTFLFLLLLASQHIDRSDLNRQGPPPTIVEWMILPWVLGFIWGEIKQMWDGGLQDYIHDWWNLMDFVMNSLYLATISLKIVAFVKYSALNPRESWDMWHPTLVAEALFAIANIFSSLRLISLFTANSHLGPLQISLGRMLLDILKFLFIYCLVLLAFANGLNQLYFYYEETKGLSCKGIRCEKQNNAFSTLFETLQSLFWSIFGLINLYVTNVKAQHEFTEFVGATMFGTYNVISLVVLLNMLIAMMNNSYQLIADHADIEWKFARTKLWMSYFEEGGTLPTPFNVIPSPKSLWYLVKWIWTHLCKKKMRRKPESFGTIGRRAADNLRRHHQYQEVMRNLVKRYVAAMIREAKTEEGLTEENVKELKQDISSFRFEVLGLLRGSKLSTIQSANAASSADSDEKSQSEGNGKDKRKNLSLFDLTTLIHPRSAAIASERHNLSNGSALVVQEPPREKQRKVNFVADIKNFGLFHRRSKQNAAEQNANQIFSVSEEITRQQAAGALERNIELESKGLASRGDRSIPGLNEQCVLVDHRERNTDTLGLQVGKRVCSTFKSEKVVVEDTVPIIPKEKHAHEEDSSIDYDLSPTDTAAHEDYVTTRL
compound,measurement,setting,value
COc1ccc(C(=O)Nc2nc(O)c3cc(OC)c(OC)cc3n2)cc1,EC50,Estrogen receptor,13.3 µM (not active)
COc1ccc(OC)c(Nc2nc(-c3ccc(O)c(O)c3)cs2)c1,EC50,[1],6.89 µM (active)
same,IC50,[2],> 50 µM (not active)
same,IC50,Protein Tat,> 100 µM (inconclusive)
same,CC50,[3],9.32 µM (active)
CCCCC1CCC(C(=O)NCC(c2ccco2)N2CCOCC2)CC1 (stereo not drawn),EC50,[4],920 nM (active)
CC(=O)Nc1ccc(SCC(=O)c2cc(C)n(Cc3ccccc3)c2C)cc1,EC50,[5],> 30 µM (not active)
Cc1ccc(C)n1-c1ccc(OCC(=O)O)cc1,EC50,Bcl-2-like protein 10 [6],8.75 µM (active)
same,IC50,NS3,36 µM (inactive)
CCCCOc1cccc(OCCCC)c1C(=O)Nc1cc(C)on1,IC50,[7],> 35 µM (not active)
same,IC50,[8],> 35 µM (not active)
same,IC50,[9],4.03 µM (active)
O=C(Nc1ccc(N2CCCCC2)c(Cl)c1)c1cccnc1,CC50,[10],15.4 µM (active)
same,EC50,[11],> 120 µM (not active)
same,EC50,[12],6.12 µM (active)
same,EC50,H4,> 120 µM (not active)
same,IC50,Vero,8.75 µM (active)
same,IC50,cells,13.6 µM (active)
COc1ccc(NC(=O)CSc2nc3ccccc3c(=O)n2CCCN2CCCCC2)c(OC)c1,IC50,[13],7.62 µM (active)
same,IC50,[14],14.7 µM (not active)
O=C(Nc1ccc2nc(-c3ccco3)c(-c3ccco3)nc2c1)N1CCCCCC1,IC50,[15],> 100 µM (not active)
same,IC50,Bcl-2-like protein 10 [16],725 nM (active)
same,IC50,[17],> 100 µM (not active)
same,IC50,[18],1.03 µM (active) and 1.85 µM (active)
N#Cc1c(NC(=O)C2CC(Cl)=CCC2C(=O)O)sc2c1CCCCC2 (stereo not drawn),IC50,Leucine aminopeptidase,< 1 µM (active)
same,IC50,Aspartyl aminopeptidase,> 73.5 µM (not active)
same,IC50,Procathepsin L,> 59.6 µM (not active)
same,EC50,[19],4.73 µM (active)
